The target in data set [1] is T1, TMEM16A (Homo sapiens, UniProt Q5XXA6).
T1 sequence (Q5XXA6 1-986): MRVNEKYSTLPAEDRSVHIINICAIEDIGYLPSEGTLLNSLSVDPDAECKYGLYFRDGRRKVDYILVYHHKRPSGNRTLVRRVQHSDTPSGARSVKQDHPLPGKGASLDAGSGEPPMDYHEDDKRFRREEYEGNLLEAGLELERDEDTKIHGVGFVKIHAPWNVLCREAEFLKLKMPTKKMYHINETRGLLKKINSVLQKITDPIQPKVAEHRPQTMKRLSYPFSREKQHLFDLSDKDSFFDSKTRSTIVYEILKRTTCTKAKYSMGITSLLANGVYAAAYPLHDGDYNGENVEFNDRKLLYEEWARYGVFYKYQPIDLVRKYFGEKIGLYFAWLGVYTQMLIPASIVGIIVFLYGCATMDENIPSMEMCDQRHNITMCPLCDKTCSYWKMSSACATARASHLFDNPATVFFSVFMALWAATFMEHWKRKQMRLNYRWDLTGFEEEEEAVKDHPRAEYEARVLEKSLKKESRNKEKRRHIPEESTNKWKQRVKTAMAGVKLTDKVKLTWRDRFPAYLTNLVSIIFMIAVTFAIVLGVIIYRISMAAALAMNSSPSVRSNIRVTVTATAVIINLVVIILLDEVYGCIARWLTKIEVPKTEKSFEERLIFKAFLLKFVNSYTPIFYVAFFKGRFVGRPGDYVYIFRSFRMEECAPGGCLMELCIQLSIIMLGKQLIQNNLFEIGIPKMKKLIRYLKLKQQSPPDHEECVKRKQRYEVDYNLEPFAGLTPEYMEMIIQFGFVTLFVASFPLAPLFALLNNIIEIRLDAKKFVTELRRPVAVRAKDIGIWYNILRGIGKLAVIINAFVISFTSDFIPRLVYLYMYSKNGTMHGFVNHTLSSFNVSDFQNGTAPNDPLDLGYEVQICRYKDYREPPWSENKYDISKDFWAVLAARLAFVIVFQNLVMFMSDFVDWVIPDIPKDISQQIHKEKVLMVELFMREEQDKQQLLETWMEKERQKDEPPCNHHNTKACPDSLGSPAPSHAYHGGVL
Description: Short-circuit current assay in TMEM16A-expressing FRT cells. In kind it is cell-based. As to conditions: Figure S2A.

Data set [2] concerns the target T1, TMEM16A. Description: Patch clamp, inside-out membrane patches from TMEM16A-expressing FRT cells. Format: cell-based. For orientation: In patch-clamp work, channel activity is measured electrically.
For data set [3], the system named is mouse ileum. Kind of data set: Ex vivo intestinal contractility. The following applies: added to bath, concentration-dependent.
The subject of data set [4] is cytoplasmic calcium. Kind of data set: Fluo-4 fluorescence measurement of ATP-stimulated cytoplasmic calcium elevation. In kind it is cell-based. As to conditions: 1 μM.
Data set [5] in a line: Shelf stability as solid or DMSO stock. Format: physicochemical. As to conditions: as a solid or in DMSO stock solution.

Consider `Cc1ccccc1NC(=O)c1c(NC(=O)C(F)(F)Br)sc2c1CCCCC2` [Compound 10bm], for which the “ionomycin- and carbachol-activated chloride conductance” value in data set [1] is “inhibited”. Further, in data set [2] (250 nM by perfusion, inside-out patch, free Ca2+ 305 nM), the “effect on TMEM16A membrane currents” value was “rapid inhibition of membrane currents”. The “recovery of membrane currents after washout” value in data set [2] (after 250 nM, washout) is on record as “fully recovered following washout”. In data set [3], the “spontaneous isometric contractions of ileum” value is reported as “strongly inhibited”. In data set [4], the “effect on ATP-stimulated cytoplasmic calcium” value was “not altered”. In data set [5], this molecule returned a long-term shelf stability above 6 months.

Values taken from article PMC5516794 (Journal of medicinal chemistry, 2017).
